Target: T1, HIV-1 integrase (HIV-1 M:B_HXB2R, UniProt P04585)
T1 construct: gene gag-pol; WT integrase, cut from Gag-Pol polyprotein
Assay: ELISA overall integration assay, biotin / digoxigenin labelled oligonucleotides
Type: biochemical
Details: overall integration reaction; 10 mM MgCl2, 5 mM DTT, 20 mM HEPES pH 7.5, 5% PEG, 15% DMSO, 37 °C, 1 h
From the text: ELISA overall integration assay, biotin / digoxigenin labelled oligonucleotides on HIV-1 integrase

Structure (SMILES)	IC50 ^a (μM/ml)
Cc1cc(C)nc(NS(=O)(=O)c2ccc(N=C3C(=O)N(C(=O)c4ccccc4)c4ccc(Br)cc43)cc2)n1 [SPIII-5Br-BZ]	> 250
CC(=O)N1C(=O)C(=Nc2ccc(S(=O)(=O)Nc3nc(C)cc(C)n3)cc2)c2cc(C)ccc21 [SPIII-5Me-AC, 4-(1-acetyl-5-methyl-2-oxoindolin-3-ylideneamino)-N-(4,6-dimethylpyrimidin-2-yl)benzenesulfonamide]	53.62±11.67
CC(=O)N1C(=O)C(=Nc2ccc(S(=O)(=O)Nc3nc(C)cc(C)n3)cc2)c2cc(Br)ccc21 [SPIII-5Br-AC]	> 250
